Assays:
Type in all cases: cell-based, human
[1] = system: NCI-N87 ADCr cells (ADCT-502 acquired resistant); assay: MTS in vitro cytotoxicity, 144 h continuous exposure
Protocol: (§3) To generate a resistant population to either ADCT-502 or SG3199, human gastric cancer NCI-N87 cells (expressing HER2) were incubated with an approximate IC50 dose of the drug for 144 hours. The cells were then washed and returned to fresh medium until normal cell growth was recovered. This process was repeated until a measurable and stable loss in cytotoxic efficacy was established using the MTS assay.
(§4) To measure the in vitro cytotoxicity with the MTS assay, cells were incubated with a 10-fold dilution range of ADCT-502 or SG3199, and incubated with continuous exposure for 144 hours (at least three cell doubling times under normal cell culture conditions). After incubation the CellTiter 960 AQueous One Solution Cell Proliferation Assay (MTS) was used to measure growth inhibition, by adding 20 μl reagent to the cells and incubating for 3-4 hours, then reading the absorbance at 492 nm. Mean % growth of the ADC or PBD treated cells was calculated relative to an untreated control.
(§5) To measure the cross-resistance of the NCI-N87 ADCR cells to the SG3199 PBD warhead, and the PBDR cells to ADCT-502, the in vitro cytotoxicity assay was carried out as described above, treating the cells with the opposite drug molecule to the one with which they were generated.

[2] = system: NCI-N87 PBDr cells (SG3199 acquired resistant); assay: as above
Protocol: as §3, §4, §5

NCI-N87 wt cells = assay: DNA interstrand cross-linking, comet assay; settings: 1 nM ADCT-502 or 1.7 nM SG3199 for 2 hours, then 24 hours
Protocol: (§1) The formation of inter-strand cross-links (ICLs) by either ADCT-502 or SG3199 was measured using the modification of the single cell gel electrophoresis (comet) assay. Cells were treated with 1 nM ADCT-502 or 1.7 nM SG3199 for 2 hours, then washed and incubated for 24 hours under normal cell culture conditions. All cells were irradiated with 18 Gy (5 Gy/min for 3.6 min). ICL formation was quantitated by measuring Olive tail moment (OTM) using the Komet 4 software, and the percentage reduction in OTM compared to an untreated irradiated control.
(§2) The results are shown in FIG. 20 for the ADCR line and FIG. 21 for the PBDR line.

NCI-N87 PBDr cells = assay: DNA interstrand cross-linking, comet assay; settings: 1 nM ADCT-502 or 1.7 nM SG3199 for 2 hours, then 24 hours
Protocol: as §1, §2

NCI-N87 ADCr cells = assay: DNA interstrand cross-linking, comet assay; settings: 1 nM ADCT-502 or 1.7 nM SG3199 for 2 hours, then 24 hours
Protocol: as §1, §2

## COc1cc2c(cc1OCCCCCOc1cc3c(cc1OC)C(=O)N1C=C(C)C[C@H]1C=N3)N=C[C@@H]1CC(C)=CN1C2=O [SG3199]
[1]; NCI-N87 ADCr vs NCI-N87 wt IC50
  fold resistance compared to wildtype: 3.8 fold
[1]; NCI-N87 ADCr, 144 h continuous exposure, mean, read-out: IC50
  IC50: 0.0604 nM
[2]; NCI-N87 PBDr vs NCI-N87 wt IC50
  fold resistance compared to wildtype: 3.7 fold
[2]; NCI-N87 PBDr, 144 h continuous exposure, mean, read-out: IC50
  IC50: 0.0586 nM
NCI-N87 wt cells
  % red. OTM: 51.0%
NCI-N87 PBDr cells
  % red. OTM: 30.7%
NCI-N87 ADCr cells
  % red. OTM: 24%

— US20220347309A1, “PYRROLOBENZODIAZEPINE RESISTANCE” (ADC THERAPEUTICS SA, priority 2018, published 2022)
